Assay results as given in ChEMBL document CHEMBL1201862, “PubChem BioAssay data set” (2004).
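All cell lines were grown in 96-well plates and treated with compound for 48 hours. GI50 is the concentration that inhibits growth by half.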 Calls of active or inactive are those of the source. Rule as the data show it: active = GI50 up to about 1.1 µM and inactive = higher. Starred links: 1 amine or outer side, 2 acyl side, 3 side chain; linkers in the order of their positions; H or OH if unused. Non-standard residues stand in square brackets, D forms with d. Residues, ends and D or L forms follow the SMILES beside them. X41 = CSCCCC(N[*:1])C(=O)[*:2]

Columns and labels:
Assay in all cases: inhibition of tumour cell growth, NCI panel, 48 h
[1] = tested on: SK-MEL-2
[2] = tested on: SN12C
[3] = tested on: SNB-19
[4] = tested on: HT-29
[5] = tested on: SK-MEL-5
[6] = tested on: A549
[7] = tested on: OVCAR-5
[8] = tested on: SF-295
[9] = tested on: MDA-MB-231
[10] = tested on: SW-620
[11] = tested on: OVCAR-4
[12] = tested on: U-251
[13] = tested on: T47D
[14] = tested on: DU-145
[15] = tested on: OVCAR-3
[16] = tested on: RPMI-8226
[17] = tested on: RXF 393

Structure (SMILES)	GI50 [1]	GI50 [2]	GI50 [3]	GI50 [4]	GI50 [5]	GI50 [6]	GI50 [7]	GI50 [8]	GI50 [9]	GI50 [10]	GI50 [11]	GI50 [12]	GI50 [13]	GI50 [14]	GI50 [15]	GI50 [16]	GI50 [17]
S=C(NCc1ccccc1)N/N=C/c1ccccn1	14.1 µM (inactive)	4.31 µM (inactive)	7.93 µM (inactive)	0.743 µM (active)	3.52 µM (inactive)	4.29 µM (inactive)	> 21.8 µM (inactive)	1.86 µM (inactive)	1.24 µM (inactive)	1.16 µM (inactive)	3.01 µM (inactive)	2.97 µM (inactive)	0.161 µM (active)	3.08 µM (inactive)	0.222 µM (active)	0.118 µM (active)	
Cc1sc2nc(-c3ccc(Cl)c([N+](=O)[O-])c3)c(/C=N/NC(=N)N)n2c1C	1.32 µM (inactive)	1.31 µM (inactive)	1.48 µM (inactive)	1.35 µM (inactive)	1.53 µM (inactive)	1.62 µM (inactive)	1.58 µM (inactive)	1.76 µM (inactive)	0.615 µM (active)	0.247 µM (active)		0.341 µM (active)	1.46 µM (inactive)	1.93 µM (inactive)	1.69 µM (inactive)	1.35 µM (inactive)	1.52 µM (inactive)
COC(=O)/C=C1/N=C(N(C)/N=C/c2ccccc2)NC1=O	> 100 µM (inactive)	> 100 µM (inactive)	> 100 µM (inactive)	> 100 µM (inactive)	> 100 µM (inactive)	> 100 µM (inactive)	> 100 µM (inactive)	> 100 µM (inactive)	> 100 µM (inactive)	> 100 µM (inactive)	> 100 µM (inactive)		> 100 µM (inactive)	> 100 µM (inactive)	> 100 µM (inactive)		> 100 µM (inactive)
COc1ccc(C(=O)/C=C/c2ccc(OCCSCCCCCCCCCCSCCOc3ccc(/C=C/C(=O)c4ccc(OC)cc4)cc3)cc2)cc1	> 100 µM (inactive)	> 100 µM (inactive)	> 100 µM (inactive)	> 100 µM (inactive)	> 100 µM (inactive)	> 100 µM (inactive)		> 100 µM (inactive)	> 100 µM (inactive)	> 100 µM (inactive)	> 100 µM (inactive)	> 100 µM (inactive)	> 100 µM (inactive)	> 100 µM (inactive)		> 100 µM (inactive)	> 100 µM (inactive)
Cc1oc2c(cc(O)c3ccccc32)c2cccc1-2		> 100 µM (inactive)	> 100 µM (inactive)	> 100 µM (inactive)	> 100 µM (inactive)	> 100 µM (inactive)	> 100 µM (inactive)	> 100 µM (inactive)	14.3 µM (inactive)	> 100 µM (inactive)		> 100 µM (inactive)	> 100 µM (inactive)	36.1 µM (inactive)	> 100 µM (inactive)	> 100 µM (inactive)	
COc1ccc(C(=O)C(CC2C(=O)CC(C)(C)C(C(=O)C(=O)Nc3c(C)cccc3C)C2=O)c2ccc(OC)cc2)cc1 (configuration not stated)	> 100 µM (inactive)	> 100 µM (inactive)	> 100 µM (inactive)	> 100 µM (inactive)	> 100 µM (inactive)	> 100 µM (inactive)	> 100 µM (inactive)	> 100 µM (inactive)	> 100 µM (inactive)	> 100 µM (inactive)	> 100 µM (inactive)	> 100 µM (inactive)		> 100 µM (inactive)	> 100 µM (inactive)		> 100 µM (inactive)
COC12CCCN1c1ccn(Cc3ccccc3)c(=O)c1C2=O (configuration not stated)	> 100 µM (inactive)	> 100 µM (inactive)	> 100 µM (inactive)	> 100 µM (inactive)	> 100 µM (inactive)	> 100 µM (inactive)	> 100 µM (inactive)	> 100 µM (inactive)	> 100 µM (inactive)	> 100 µM (inactive)	> 100 µM (inactive)	> 100 µM (inactive)	> 100 µM (inactive)	> 100 µM (inactive)	> 100 µM (inactive)		> 100 µM (inactive)
CC(C)[C@@H]1CC[C@@H](C)C[C@H]1OC(=O)/C=C1\C(C(=O)O[C@@H]2C[C@H](C)CC[C@H]2C(C)C)[C@H]2C=C[C@@H]1O2 (some centres not stated)		57.8 µM (inactive)	> 100 µM (inactive)	33.4 µM (inactive)	40.4 µM (inactive)	80.2 µM (inactive)	> 100 µM (inactive)	25.2 µM (inactive)	87.5 µM (inactive)	29.9 µM (inactive)	> 100 µM (inactive)	51.4 µM (inactive)	75.2 µM (inactive)	57.9 µM (inactive)	38.3 µM (inactive)	56.1 µM (inactive)	> 100 µM (inactive)
COc1cc(Nc2ccc3c(c2)CCC3)nc(OC)n1	33 µM (inactive)	30.2 µM (inactive)	43.6 µM (inactive)	19.9 µM (inactive)	23.9 µM (inactive)	26.5 µM (inactive)	78 µM (inactive)	29.6 µM (inactive)	38.5 µM (inactive)	> 100 µM (inactive)	33.3 µM (inactive)	> 100 µM (inactive)	26.4 µM (inactive)	53 µM (inactive)	46.1 µM (inactive)	14.7 µM (inactive)	
CC1CCN(C(C)C)P(=S)(Cc2ccccc2)O1 (configuration not stated)	44.3 µM (inactive)		> 100 µM (inactive)	> 100 µM (inactive)	> 100 µM (inactive)	> 100 µM (inactive)	> 100 µM (inactive)	34 µM (inactive)	> 100 µM (inactive)	7.93 µM (inactive)	84.3 µM (inactive)	> 100 µM (inactive)	11.2 µM (inactive)	> 100 µM (inactive)	34.4 µM (inactive)	99.8 µM (inactive)	
O=C1c2cn[nH]c2N=C(Nc2ccccc2)C1/N=C/c1ccc([N+](=O)[O-])cc1 (configuration not stated)		> 10 µM (inactive)	> 10 µM (inactive)	> 10 µM (inactive)	> 10 µM (inactive)	> 10 µM (inactive)	> 10 µM (inactive)	> 10 µM (inactive)			> 10 µM (inactive)	> 10 µM (inactive)		> 10 µM (inactive)	> 10 µM (inactive)		
CC1C(c2ccccc2O)c2cc3c(cc2OC1N1CCOCC1)OCO3 (configuration not stated)	29 µM (inactive)	37.1 µM (inactive)	40.7 µM (inactive)	26.9 µM (inactive)	22.1 µM (inactive)	25.6 µM (inactive)	47.5 µM (inactive)	21.7 µM (inactive)	29.9 µM (inactive)	42.3 µM (inactive)		26.5 µM (inactive)	31.7 µM (inactive)	38.5 µM (inactive)	22.6 µM (inactive)	15.5 µM (inactive)	22.6 µM (inactive)
O=c1c2ccccc2nc(-c2cccc([N+](=O)[O-])c2)n1O	22.6 µM (inactive)	24.2 µM (inactive)	53.2 µM (inactive)	43.7 µM (inactive)	32.7 µM (inactive)	34.9 µM (inactive)	66.7 µM (inactive)	40.1 µM (inactive)	17.5 µM (inactive)	35.3 µM (inactive)	33 µM (inactive)	27.4 µM (inactive)	58.5 µM (inactive)	> 100 µM (inactive)	31.6 µM (inactive)		47.1 µM (inactive)
Cc1oc2nc1C(=O)NCc1nc(cs1)C(=O)N[C@H](C(C)C)c1nc(cs1)C(=O)N[C@H]2C		58.5 µM (inactive)	> 100 µM (inactive)	65 µM (inactive)	23.1 µM (inactive)	47.2 µM (inactive)	> 100 µM (inactive)	18.4 µM (inactive)	9.57 µM (inactive)	> 100 µM (inactive)	> 100 µM (inactive)	> 100 µM (inactive)	28.5 µM (inactive)	79.3 µM (inactive)	> 100 µM (inactive)	14.3 µM (inactive)	8.34 µM (inactive)
Cc1cc2[nH]c3c(C#N)c(-c4ccccc4)c(/C=N/c4ccc(F)cc4)c(=O)n3c2cc1C	> 100 µM (inactive)	> 100 µM (inactive)	0.513 µM (active)		> 100 µM (inactive)	49 µM (inactive)	> 100 µM (inactive)	64.6 µM (inactive)	> 100 µM (inactive)	62.5 µM (inactive)	> 100 µM (inactive)	> 100 µM (inactive)	40.6 µM (inactive)		39.4 µM (inactive)	> 100 µM (inactive)	91.2 µM (inactive)
CC(=O)OC1CC[C@]2(C)C3CC[C@@]4(C)C(CCC4[C@H](C)CCCC(C)C)[C@@H]3CCC2(Br)C1 (some centres not stated)		22.5 µM (inactive)	27.4 µM (inactive)	17.5 µM (inactive)		19.8 µM (inactive)	24.2 µM (inactive)	34.8 µM (inactive)	13.7 µM (inactive)	9.42 µM (inactive)	11.7 µM (inactive)	17.9 µM (inactive)	14.1 µM (inactive)	> 50 µM (inactive)	14.5 µM (inactive)		12.1 µM (inactive)
CSCCCC(NC(=O)CNC(=O)C1CCCN1C(=O)C(Cc1ccc(O)cc1)NC(=O)C(Cc1ccccc1)NC(=O)C(CCCNC(=N)N)NC(=O)C(CC(=O)O)NC(=O)C1CCCN1C(=O)C(CC(=O)O)NC(=O)C1CCCN1C(=O)C1CCCN1C(=O)CN)C(N)=O (configuration not stated) (H-GPPDPDRFYPG[X41]-NH2; configuration not given here)	> 50 µM (inactive)	> 50 µM (inactive)	> 50 µM (inactive)	> 50 µM (inactive)	> 50 µM (inactive)	> 50 µM (inactive)	> 50 µM (inactive)	> 50 µM (inactive)	> 50 µM (inactive)	> 50 µM (inactive)	> 50 µM (inactive)	> 50 µM (inactive)	> 50 µM (inactive)		> 50 µM (inactive)	> 50 µM (inactive)	
